Experiments:
Type in all cases: in vivo, human
ARDS patients [1] = test: eICU (v1) dataset, statin intervention by Model C.4 subphenotype; parameters: Alive: unit not given here; settings: for Alive / Dead / Mortality: no consideration to number doses and minimum dose size; for Mortality Rate: admitted with drug or initiated during ICU stay
Description: The dataset from the eICU (v1) dataset was used for analysis. The intervention of interest was statins.
The individual statins were then examined with no consideration to number of doses and minimum dose size. Using this methodology, there were several differential responses identified (bolded and underlined cells as shown below in Table 81).

ARDS patients [2] = test: eICU data filtered for patients without prior indication for statin use, statin intervention by subphenotype
Description: This included patients with history of angina, congestive heart failure, coronary artery bypass grafting, multiple coronary artery bypass, hypertension requiring treatment, previous acute myocardial infarction, peripheral vascular disease, previous coronary intervention procedure, stroke, and/or transient ischemic attack.

ARDS patients [3] = test: eICU (v1) dataset, statin intervention by Model C.4 subphenotype; parameters: Alive: unit not given here
[4] = admitted with drug or initiated during ICU stay, All Patients
[5] = admitted with drug or initiated during ICU stay, Subphenotype A
[6] = admitted with drug or initiated during ICU stay, Subphenotype B
[7] = initiated during ICU stay, All Patients
[8] = initiated during ICU stay, Subphenotype A
[9] = initiated during ICU stay, Subphenotype B
[10] = on drug at time of ICU admit, All Patients
[11] = on drug at time of ICU admit, Subphenotype A
[12] = on drug at time of ICU admit, Subphenotype B

CC[C@H](C)C(=O)O[C@H]1C[C@@H](C)C=C2C=C[C@H](C)[C@H](CC[C@@H]3C[C@@H](O)CC(=O)O3)[C@H]21 [Lovastatin]
Alive (ARDS patients [1]; All Patients): 12
Dead (ARDS patients [1]; All Patients): 1
Mortality (ARDS patients [1]; All Patients): 8%
Alive (ARDS patients [1]; Subphenotype A): 10
Dead (ARDS patients [1]; Subphenotype A): 0
Mortality (ARDS patients [1]; Subphenotype A): 0%
Alive (ARDS patients [1]; Subphenotype B): 2
Dead (ARDS patients [1]; Subphenotype B): 1
Mortality (ARDS patients [1]; Subphenotype B): 33%

CC[C@H](C)C(=O)O[C@H]1C[C@H](O)C=C2C=C[C@H](C)[C@H](CC[C@@H](O)C[C@@H](O)CC(=O)O)[C@H]21 [Pravastatin]
Alive (ARDS patients [1]; All Patients): 29
Dead (ARDS patients [1]; All Patients): 6
Mortality (ARDS patients [1]; All Patients): 17%
Alive (ARDS patients [1]; Subphenotype A): 20
Dead (ARDS patients [1]; Subphenotype A): 4
Mortality (ARDS patients [1]; Subphenotype A): 17%
Alive (ARDS patients [1]; Subphenotype B): 9
Dead (ARDS patients [1]; Subphenotype B): 2
Mortality (ARDS patients [1]; Subphenotype B): 18%

CC(C)c1nc(N(C)S(C)(=O)=O)nc(-c2ccc(F)cc2)c1/C=C/[C@@H](O)C[C@@H](O)CC(=O)O [Rosuvastatin]
Alive (ARDS patients [1]; All Patients): 32
Dead (ARDS patients [1]; All Patients): 4
Mortality (ARDS patients [1]; All Patients): 11%
Alive (ARDS patients [1]; Subphenotype A): 23
Dead (ARDS patients [1]; Subphenotype A): 2
Mortality (ARDS patients [1]; Subphenotype A): 8%
Alive (ARDS patients [1]; Subphenotype B): 9
Dead (ARDS patients [1]; Subphenotype B): 2
Mortality (ARDS patients [1]; Subphenotype B): 18%

CC(C)c1c(C(=O)Nc2ccccc2)c(-c2ccccc2)c(-c2ccc(F)cc2)n1CC[C@@H](O)C[C@@H](O)CC(=O)O [atorvastatin]
Alive (ARDS patients [2]; [4]): 51
Dead (ARDS patients [2]; [4]): 12
Mortality Rate (ARDS patients [2]; [4]): 19.05
Alive (ARDS patients [2]; [5]): 40
Dead (ARDS patients [2]; [5]): 6
Mortality Rate (ARDS patients [2]; [5]): 13.04
Alive (ARDS patients [2]; [6]): 11
Dead (ARDS patients [2]; [6]): 6
Mortality Rate (ARDS patients [2]; [6]): 35.29
Alive (ARDS patients [2]; [7]): 42
Dead (ARDS patients [2]; [7]): 9
Mortality Rate (ARDS patients [2]; [7]): 17.65
Alive (ARDS patients [2]; [8]): 34
Dead (ARDS patients [2]; [8]): 5
Mortality Rate (ARDS patients [2]; [8]): 12.82
Alive (ARDS patients [2]; [9]): 8
Dead (ARDS patients [2]; [9]): 4
Mortality Rate (ARDS patients [2]; [9]): 33.33
Alive (ARDS patients [2]; [10]): 9
Dead (ARDS patients [2]; [10]): 3
Mortality Rate (ARDS patients [2]; [10]): 25
Alive (ARDS patients [2]; [11]): 6
Dead (ARDS patients [2]; [11]): 1
Mortality Rate (ARDS patients [2]; [11]): 14.29
Alive (ARDS patients [2]; [12]): 3
Dead (ARDS patients [2]; [12]): 2
Mortality Rate (ARDS patients [2]; [12]): 40
Alive (ARDS patients [3]; [4]): 290
Dead (ARDS patients [3]; [4]): 54
Alive (ARDS patients [3]; [5]): 209
Dead (ARDS patients [3]; [5]): 26
Mortality Rate (ARDS patients [3]; [5]): 11.06
Alive (ARDS patients [3]; [6]): 81
Dead (ARDS patients [3]; [6]): 28
Mortality Rate (ARDS patients [3]; [6]): 25.69
Alive (ARDS patients [3]; [7]): 210
Dead (ARDS patients [3]; [7]): 40
Mortality Rate (ARDS patients [3]; [7]): 16
Alive (ARDS patients [3]; [8]): 149
Dead (ARDS patients [3]; [8]): 19
Mortality Rate (ARDS patients [3]; [8]): 11.31
Alive (ARDS patients [3]; [9]): 61
Dead (ARDS patients [3]; [9]): 21
Mortality Rate (ARDS patients [3]; [9]): 25.61
Alive (ARDS patients [3]; [10]): 80
Dead (ARDS patients [3]; [10]): 14
Mortality Rate (ARDS patients [3]; [10]): 14.89
Alive (ARDS patients [3]; [11]): 60
Dead (ARDS patients [3]; [11]): 7
Mortality Rate (ARDS patients [3]; [11]): 10.45
Alive (ARDS patients [3]; [12]): 20
Dead (ARDS patients [3]; [12]): 7
Mortality Rate (ARDS patients [3]; [12]): 25.93
Mortality Rate (ARDS patients [1]; All Patients): 15.70
Alive (ARDS patients [1]; All Patients): 289
Dead (ARDS patients [1]; All Patients): 54
Mortality (ARDS patients [1]; All Patients): 16%
Alive (ARDS patients [1]; Subphenotype A): 209
Dead (ARDS patients [1]; Subphenotype A): 26
Mortality (ARDS patients [1]; Subphenotype A): 11%
Alive (ARDS patients [1]; Subphenotype B): 80
Dead (ARDS patients [1]; Subphenotype B): 28
Mortality (ARDS patients [1]; Subphenotype B): 26%

CCC(C)(C)C(=O)O[C@H]1C[C@@H](C)C=C2C=C[C@H](C)[C@H](CC[C@@H]3C[C@@H](O)CC(=O)O3)[C@H]21 [simvastatin]
Alive (ARDS patients [2]; [4]): 23
Dead (ARDS patients [2]; [4]): 5
Mortality Rate (ARDS patients [2]; [4]): 17.86
Alive (ARDS patients [2]; [5]): 15
Dead (ARDS patients [2]; [5]): 1
Mortality Rate (ARDS patients [2]; [5]): 6.25
Alive (ARDS patients [2]; [6]): 8
Dead (ARDS patients [2]; [6]): 4
Mortality Rate (ARDS patients [2]; [6]): 33.33
Alive (ARDS patients [2]; [7]): 6
Dead (ARDS patients [2]; [7]): 4
Mortality Rate (ARDS patients [2]; [7]): 40
Alive (ARDS patients [2]; [8]): 5
Dead (ARDS patients [2]; [8]): 1
Mortality Rate (ARDS patients [2]; [8]): 16.67
Alive (ARDS patients [2]; [9]): 1
Dead (ARDS patients [2]; [9]): 3
Mortality Rate (ARDS patients [2]; [9]): 75
Alive (ARDS patients [2]; [10]): 17
Dead (ARDS patients [2]; [10]): 1
Mortality Rate (ARDS patients [2]; [10]): 5.56
Alive (ARDS patients [2]; [11]): 10
Dead (ARDS patients [2]; [11]): 0
Mortality Rate (ARDS patients [2]; [11]): 0
Alive (ARDS patients [2]; [12]): 7
Dead (ARDS patients [2]; [12]): 1
Mortality Rate (ARDS patients [2]; [12]): 12.5
Alive (ARDS patients [3]; [4]): 176
Dead (ARDS patients [3]; [4]): 26
Alive (ARDS patients [3]; [5]): 126
Dead (ARDS patients [3]; [5]): 10
Mortality Rate (ARDS patients [3]; [5]): 7.35
Alive (ARDS patients [3]; [6]): 50
Dead (ARDS patients [3]; [6]): 16
Mortality Rate (ARDS patients [3]; [6]): 24.24
Alive (ARDS patients [3]; [7]): 89
Dead (ARDS patients [3]; [7]): 15
Mortality Rate (ARDS patients [3]; [7]): 14.42
Alive (ARDS patients [3]; [8]): 63
Dead (ARDS patients [3]; [8]): 6
Mortality Rate (ARDS patients [3]; [8]): 8.70
Alive (ARDS patients [3]; [9]): 26
Dead (ARDS patients [3]; [9]): 9
Mortality Rate (ARDS patients [3]; [9]): 25.71
Alive (ARDS patients [3]; [10]): 87
Dead (ARDS patients [3]; [10]): 11
Mortality Rate (ARDS patients [3]; [10]): 11.22
Alive (ARDS patients [3]; [11]): 63
Dead (ARDS patients [3]; [11]): 4
Mortality Rate (ARDS patients [3]; [11]): 5.97
Alive (ARDS patients [3]; [12]): 24
Dead (ARDS patients [3]; [12]): 7
Mortality Rate (ARDS patients [3]; [12]): 22.58
Mortality Rate (ARDS patients [1]; All Patients): 12.87
Alive (ARDS patients [1]; All Patients): 167
Dead (ARDS patients [1]; All Patients): 26
Mortality (ARDS patients [1]; All Patients): 13%
Alive (ARDS patients [1]; Subphenotype A): 122
Dead (ARDS patients [1]; Subphenotype A): 10
Mortality (ARDS patients [1]; Subphenotype A): 8%
Alive (ARDS patients [1]; Subphenotype B): 45
Dead (ARDS patients [1]; Subphenotype B): 16
Mortality (ARDS patients [1]; Subphenotype B): 26%

From patent US20230290452A1, “Electronic Health Record (EHR)-Based Classifier for Acute Respiratory Distress Syndrome (ARDS) Subtyping” (Endpoint Health Inc., priority 2020, published 2023)
